The results in this text go back to patent publication US20240263128A1, “METHOD OF PRODUCING BIOLOGICAL MATERIAL” (NIPPON TELEGRAPH AND TELEPHONE CORPORATION, priority 2021, published 2024).

The subject of experiment [1] is Cyanidiosyzon merolae. The experiment can be described thus: Amount of starch in unicellular red algae after cultivation. The experiment is classed as cell-based. The note with it: 2 mmol/L dimethyl 2-oxoglutarate, MA2 culture medium, suspension culture under light, 24 hours after addition, compared with control without promoter; average of three independent tests, FIG. 5. How it is done:
Unicellular red algae were cultured in suspension under a light condition and a promoter was added thereto. An MA2 culture medium was used as a culture medium. Cyanidiosyzon merolae were used as unicellular red algae. Dimethyl 2-oxoglutarate was used as a promoter. The promoter was added so that the final concentration of dimethyl 2-oxoglutarate would be 2 mmol/L. After the addition of the promoter, the cultivation was continued for 24 hours more. Thereafter, a bright field image was obtained for the cultured unicellular red algae using a microscope. In addition, the fat and oil of the unicellular red algae were stained with commercially available BODIPY (registered trademark) from the Cosmo Bio, Inc. Then, a fluorescence observation image of the unicellular red algae with stained fat and oil was acquired by using a fluorescence microscope. The same cultivation as in test 1 was performed, and the amount of starch contained in the unicellular red algae after the cultivation was determined. FIG. 5 is a graph showing an example of the influence of addition of a promoter on the amount of accumulation of starch. […] In FIG. 5, “control” represents the results obtained for the unicellular red algae cultured without adding a promoter to the culture medium. […]

The test system of experiment [2] is Cyanidiosyzon merolae. The experiment can be described thus: Fat and oil accumulation in unicellular red algae (BODIPY staining, fluorescence microscopy). It is filed as cell-based. The note with it: 2 mmol/L dimethyl 2-oxoglutarate, MA2 culture medium, suspension culture under light, 24 hours after addition, compared with culture without promoter; FIG. 2 vs FIG. 4. The method, then: Unicellular red algae were cultured in suspension under a light condition and a promoter was added thereto. An MA2 culture medium was used as a culture medium. Cyanidiosyzon merolae were used as unicellular red algae. Dimethyl 2-oxoglutarate was used as a promoter. The promoter was added so that the final concentration of dimethyl 2-oxoglutarate would be 2 mmol/L. After the addition of the promoter, the cultivation was continued for 24 hours more. Thereafter, a bright field image was obtained for the cultured unicellular red algae using a microscope. In addition, the fat and oil of the unicellular red algae were stained with commercially available BODIPY (registered trademark) from the Cosmo Bio, Inc. Then, a fluorescence observation image of the unicellular red algae with stained fat and oil was acquired by using a fluorescence microscope. In addition, cultivation was similarly conducted as described above except that no promoter was added. Then, acquisition of a bright field image, staining of fat and oil, and acquisition of a fluorescence observation image were carried out also for the cultured unicellular red algae.

On to `COC(=O)CCC(=O)C(=O)OC` [promoter, dimethyl 2-oxoglutarate], for which the “amount of accumulation of starch” value with Cyanidiosyzon merolae [1] is “greatly promoted”. The “accumulation of fat and oil (fluorescence caused by BODIPY staining)” value in the experiment with Cyanidiosyzon merolae [2] is recorded as “greatly promoted”.
